How the values were obtained:
[1] = system: HBB locus; assay: Cas9 genome editing at the HBB locus, quantification of repair outcomes (reads); type: cell-based
Description: The data is a representation of at least four independent experiments with a minimum of 350 reads per condition.
FIG. 12B is a graph depicting the percentage of modification observed in U2OS cells edited at the HBB locus with D10A Cas9 and 2 gRNAs with or without BRCA2 or Rad51. FF is a negative control.

[2] = system: HBB locus; assay: Repair outcomes at the HBB locus after Cas9 variant cleavage, Sanger sequencing of Topo clones; type: cell-based, human; settings: U2OS cells
Description: The different repair outcomes induced in response to DSBs introduced by different Cas9 variants were examined (FIG. 3). […] Several different DNA repair outcomes including, e.g., indel mutations resulting from non-homologous end-joining, alternative NHEJ, HDR homologous recombination (HR) using the closely related HBD gene as an endogenous template, or homology dependent repair using an exogenous donor sequence were characterized.
For some conditions, 50 pmols of single stranded oligonucleotide donor (ss-ODN) was included. Cells were collected 6 days after electroporation and genomic DNA was extracted. PCR amplification of the HBB locus was performed and subcloned into a Topo Blunt Vector. For each condition in each experiment (more the 4 independent samples) 98 colonies were analyses were sequenced with Sanger sequencing and scored for either insertions, deletions, gene conversion or gene corrections.

[3] = system: HBB locus; assay: Deletion length at the HBB locus after Cas9 variant cleavage; type: cell-based, human; settings: U2OS cells, gRNAs 8 and 15, 6 days after electroporation
Protocol: In this experiment, the deletions occurring in response to different end structures induced by different Cas9 variants were analyzed. […] Cells were collected 6 days after electroporation and genomic DNA was extracted. PCR amplification of the HBB locus was performed and subcloned into a Topo Blunt Vector. For each condition in each experiment (more the 4 independent samples), 98 colonies were analyses were sequenced with Sanger sequencing. Deletions detected by Sanger sequencing were scored for the exact number of nucleotides deleted.

| Substance | repair pathway of the double strand breaks generated [1] | engagement of the 5′ protruding end in HDR ([1]; PAM facing in the opposite orientation, presence of a single-stranded oligonucleotide donor template nucleic acid) | efficacy compared to wildtype Cas9 ([2]; gRNAs HBB-8 and HBB-15) | predominant repair outcome of the induced DSBs ([2]; gRNAs HBB-8 and HBB-15, no exogenous ss-ODN, 6 days after electroporation) | repair using the ss-ODN as a template ([2]; gRNAs HBB-8 and HBB-15, with 50 pmols ss-ODN) | size of deletions [3] |
| --- | --- | --- | --- | --- | --- | --- |
| D10A Cas9 mutant: Cas9 nickase with D10A mutation; D10A inactivates RuvC, only HNH activity; leaves 5′ protruding ends | predominantly repaired by HR | more prone to be engaged in HDR |  |  |  |  |
| D10A: Cas9 nickase mutant (RuvC domain catalytic mutant); two gRNAs with PAMs outwards give 5′ protruding arms |  |  | comparable levels of efficacy compared to wildtype Cas9 | predominantly repaired by the gene conversion pathway | most efficient repair | mostly larger in nature |
